Columns and labels:
[1] = system: dog eye intraocular pressure (IOP); assay: Percent change from baseline IOP after intraocular administration in Beagle dogs; assay type: in vivo; details: for IOP reduction maintained through: compared to fellow eye
Procedure: Examples 3 to 7 below set forth in vivo (Beagle dogs) studies carried out by intraocular injection of microspheres or implant, suspended in aqueous vehicle (2% carboxy methylcellulose [CMC], 0.1% Tween 80 in 0.9% saline) or in a high viscosity, high shear rate gel (i.e. a suitable high molecular weight, polymeric hyaluronic acid). Microspheres or implant containing an anti-hypertensive agent was injected in one eye and placebo microspheres or implant was injected in the other eye as a control. IOP and hyperemia were monitored for multiweek periods. Ultra thin wall 25-27 gauge needles were used. When microspheres were used they were suspended in vehicle at 10% or 20% by weight.

dog eye = assay: Hyperemia and ocular tolerability after intraocular administration in Beagle dogs; assay type: in vivo
Procedure: Microspheres or implant containing an anti-hypertensive agent was injected in one eye and placebo microspheres or implant was injected in the other eye as a control. IOP and hyperemia were monitored for multiweek periods. Ultra thin wall 25-27 gauge needles were used. When microspheres were used they were suspended in vehicle at 10% or 20% by weight.

[2] = anterior intravitreal administration, dog

SMILES: CCCCC[C@H](O)c1ccc(N2C(=O)CC[C@@H]2COCc2ccc(C(=O)OC(C)C)s2)cc1 [Compound A, 5-{(R)-1-[4-((S)-1-Hydroxy-hexyl)-phenyl]-5-oxo-pyrrolidin-2-ylmethoxymethyl}-thiophene-2-carboxylic acid isopropyl ester]
- IOP reduction maintained through ([1]; 50 microliter anterior vitreous injection): 3 days
- maximum IOP reduction from baseline ([1]; 50 microliter intracameral injection, 0.1% in normal saline): about 50%
- IOP reduction maintained through ([1]; 50 microliter intracameral injection): 3 days
- maximum IOP reduction below baseline [1, 2]: about 30%
- conjunctival hyperemia (dog eye; [2]): mild conjunctival hyperemia through day 3
- ocular inflammation at follow up examinations (dog eye; anterior vitreous injection): no signs of ocular inflammation
- ocular inflammation at follow up examinations (dog eye; intracameral injection): no signs of ocular inflammation
- subsequent conjunctival hyperemia recordings (dog eye; intracameral, after the first day): 0
- maximum conjunctival hyperemia score (dog eye; intracameral, near the site of injection, first day): +0.5
- tolerability (dog eye; neat injections in the anterior chamber and anterior vitreous): well tolerated
